In PMC11720699, “Developing Allosteric Chaperones for GBA1-Associated Disorders—An Integrated Computational and Experimental Approach” (International Journal of Molecular Sciences, 2024):

Key:
[1] = tested on: monohexosylceramide (HexCer); test: HexCer substrate quantification by LC/MS-MS in GD patient fibroblasts; type: cell-based, human; details: L444P/L444P fibroblasts
Protocol: L444P/L444P fibroblasts have impaired GCase activity due to the presence of the mutation, resulting in the accumulation of toxic substrates, glucosylceramide (GlcCer), and other related sphingolipids in the lysosome. To evaluate the efficacy of the compounds in reducing substrate accumulation, we quantified monohexosylceramide (HexCer) species (including GluCer) after treatment of L444P/L444P fibroblasts with compounds 2 and 3. The accumulation and clearance of these substrates were measured by liquid chromatography-tandem mass spectrometry (LC/MS-MS), quantifying the total HexCer species. […] Moreover, at higher concentrations, it inhibited GCase activity (Figure 5A), leading to increased accumulation of HexCer (Figure 5C).
For fibroblast samples, cell pellets were dissolved in 150 µL of methanol containing 0.5% formic acid and 1 µM GalCer-d35 (C18 Galactosylceramide-d35 [d18:1/18:0-d35]; 24467 Cayman, Ann Arbor, MI, USA) as an internal standard. The samples were shaken for 1 h and sonicated once for 4 s at 30% amplitude. The supernatant was then collected by centrifugation at 13,000 G for 5 min at 4 °C. Sphingolipid analysis was performed using UPLC with an Agilent 1290 Infinity II/QQQ G6475 mass spectrometer system. […] HexCer was monitored in multiple reaction monitoring (MRM) mode, quantifying the 728.6 > 710.5 m/z transition.

[2] = NeuroPK: plasma and brain levels after i.v. administration; type: in vivo, male C57BL/6 mice; details: mouse, i.v. 10 mg/kg
Protocol: Finally, we investigated whether compound 3 can cross the BBB and enter the central nervous system following intravenous (i.v.) administration. This is a preliminary step in developing the compound as a disease-modifying therapy for neuropathic GD and other neurological disorders linked to GBA mutations, such as PD and other synucleinopathies. Pharmacokinetics and brain penetrability were assessed by measuring the levels of compound 3 in brain tissue and plasma after intravenous administration (10 mg/kg) in wild-type mice.
The brain penetration of compound 3 following intravenous injection was evaluated as follows. Nine male C57BL/6 mice received an intravenous dose of 10 mg/kg of the compound in a solution formulation consisting of 5% v/v NMP (N-methyl-2-pyrrolidone), 10% v/v Solutol® HS-15, 30% v/v PEG-400, and […]. Blood samples (approximately 60 µL) were collected under light isoflurane anesthesia from three mice at each of the following time points: 0.25, 2, and 8 h. Plasma was obtained by centrifuging the blood and stored at −70 ± 10 °C until analysis. Brain samples were also collected from each mouse at the respective time points. Tissue samples were homogenized using ice-cold phosphate-buffered saline (pH 7.4), and the homogenates were stored below −70 °C until analysis. The total homogenate volume was three times the brain weight.
The concentration-time data from plasma and brain samples were used for pharmacokinetic analysis. Both plasma and brain samples were quantified using a fit-for-purpose LC-MS/MS method, with a lower limit of quantification (LLOQ) of 1.00 ng/mL for plasma and 2.00 ng/mL for the brain. The LC conditions were as follows: Thermo Scientific™ Accucore™ C18 column (2.7 µm, 50 mm × 2.1 mm), run time of 1.6 min, injection volume of 1 µL, and flow rate of 0.8 mL/min. The mobile phase consisted of 0.1% formic acid in acetonitrile (A) and 10 mM ammonium formate (B), with the following gradient: 0.00 min/95% B, 0.30 min/95% B, 0.50 min/5% B, 1.20 min/5% B, 1.40 min/95% B, and 1.60 min/95% B.

[3] = tested on: GlcSph; test: GlcSph quantification by LC/MS-MS in differentiated BE(2)-M17 cells; type: cell-based, human; details: GBA1 mutant BE(2)-M17 cell lines, 10 days, 25 µM
Description: Our neuronal model uses stable BE(2)-M17 dopaminergic-like neuronal cell lines that constitutively express two prevalent GBA1 mutations, p.N370S and p.L444P [37]. These neuronal cell lines undergo post-mitotic differentiation and display a dopaminergic phenotype, neurite extension, and sphingolipid accumulation. Therefore, they serve as an excellent model for evaluating the biological efficacy of therapeutic interventions, such as our PCs, aimed at restoring GCase activity in vitro. Subsequently, we induced differentiation of BE(2)-M17 cell lines into post-mitotic neuronal cells, a crucial step for investigating the effects of lysosomal system impairment and its consequences in terms of intracellular macromolecule accumulation. Following differentiation, cells were treated for an extended period (10 days) with the selected compounds to analyze their impact on GCase stability, GCase activity, sphingolipid accumulation, and cell viability. […]
For BE(2)-M17 samples, lipid extraction to quantify sphingolipids was conducted as outlined in Navarro-Romero et al.. […] The supernatant was evaporated to dryness under a stream of nitrogen and reconstituted with 500 µL of methanol:chloroform (1:2) before being transferred into chromatography vials for quantification via liquid chromatography tandem-mass spectrometry (LC-MS/MS). […]

Compound	effect on HexCer levels [1]	Kp at […] ([2]; male, C57BL/6, brain/plasma, iv, 0.25 h)	Kp at 2 h ([2]; male, C57BL/6, brain/plasma, iv, 2 h)	Kp at 8 h ([2]; male, C57BL/6, brain/plasma, iv, 8 h)	concentration at […] ([2]; male, C57BL/6, plasma, iv, 0.25 h) [ng/mL]	concentration at 2 h ([2]; male, C57BL/6, plasma, iv, 2 h) [ng/mL]	concentration at 8 h ([2]; male, C57BL/6, plasma, iv, 8 h) [ng/mL]	Brain Concentration ([2]; 2 h) [n/g]	Brain Concentration ([2]; 8 h) [n/g]	effect on GlcSph (sphingolipid) levels [3]
CN(Cc1ccccc1)Cc1nc(N)nc(Nc2cccc(Br)c2)n1 [Compound 2]	ineffective in lowering sphingolipid levels									
CN(C(=O)c1cc(N)cc(Nc2cccc3c2OCO3)n1)c1ccccc1 [Compound 3]	successfully decreased HexCer levels	4.37	3.29	1.16	1970	65.1	11.4	221.14	13.64	effectively reduced accumulated sphingolipid levels
